Experimental data taken from ChEMBL document CHEMBL1140598, “A review of anti-infective and anti-inflammatory chalcones” (Eur J Med Chem, 2007).
Values after ≈ are worked out from the molar mass of the structure shown.

What was measured:
[1] = test system: Mycobacterium tuberculosis; test: Antibacterial activity against Mycobacterium tuberculosis H37Rv at 12.5 ug/mL; format: functional
[2] = test system: Plasmodium falciparum; test: Antimalarial activity against chloroquine-resistant Plasmodium falciparum K1 by [3H]hypoxanthine incorporation; format: functional, organism-based
[3] = test system: Plasmodium falciparum; test: Antimalarial activity against Plasmodium falciparum; format: functional, organism-based
[4] = test system: Leishmania braziliensis; test: Growth inhibition of Leishmania braziliensis promastigotes; format: functional, organism-based
[5] = test system: RAW; test: Inhibition of prostaglandin E2 production in LPS-stimulated mouse RAW 264.7 cells at 10 uM; format: functional
[6] = test system: RAW; test: Inhibition of nitric oxide production in LPS-stimulated mouse RAW 264.7 cells at 10 uM; format: functional
[7] = test system: Rhizoctonia solani; test: Antifungal activity against Rhizoctonia solani; format: functional
[8] = test system: Fusarium oxysporum; test: Antifungal activity against Fusarium oxysporum; format: functional
[9] = test system: Colletotrichum truncatum; test: Antifungal activity against Colletotrichum capsici; format: functional
[10] = test system: Trypanosoma cruzi; test: Growth inhibition of Trypanosoma cruzi epimastigotes; format: functional, organism-based
[11] = test system: Staphylococcus aureus; test: Antibacterial activity against Staphylococcus aureus; format: functional, organism-based
[12] = test system: Neutrophil; test: Inhibition of fMLP/CB-stimulated release of lysozyme in rat neutrophils; format: functional, cell-based
[13] = test system: Neutrophil; test: Inhibition of fMLP/CB-stimulated release of beta-glucuronidase in rat neutrophils; format: functional, cell-based
[14] = molecular target: Protease (Human immunodeficiency virus 1, UniProt Q9YQ12); test: Inhibition of HIV1 protease
[15] = molecular target: Protease (Human immunodeficiency virus 1) (UniProt Q9YQ12); test: Inhibition of HIV1 protease at 50 ug/mL
[16] = test system: Plasmodium falciparum; test: Inhibition of ring to schizont stage maturation in Plasmodium falciparum NF54 at 50 ug/mL; format: functional
[17] = test system: Plasmodium falciparum; test: Inhibition of ring to schizont stage maturation in Plasmodium falciparum NF54 at 10 ug/mL; format: functional
[18] = test system: RAW; test: Inhibition of nitric oxide production in LPS-stimulated mouse RAW 264.7 cells; format: functional, cell-based
[19] = test system: Leishmania donovani; test: Inhibition of Leishmania donovani amastigotes in human monocyte-derived macrophages; format: functional, organism-based
[20] = test system: Leishmania major; test: Growth inhibition of Leishmania major promastigotes assessed as [3H]thymidine incorporation; format: functional, organism-based
[21] = test system: Staphylococcus haemolyticus; test: Antibacterial activity against Staphylococcus haemolyticus; format: functional
[22] = test system: Staphylococcus epidermidis; test: Antibacterial activity against Staphylococcus epidermidis; format: functional
[23] = test system: Trichophyton rubrum; test: Antifungal activity against Trichophyton rubrum; format: functional
[24] = test system: Trichophyton benhamiae; test: Antifungal activity against Trichophyton mentagrophytes; format: functional, Arthroderma benhamiae
[25] = test system: Microsporum canis; test: Antifungal activity against Microsporum canis; format: functional
[26] = test system: Epidermophyton floccosum; test: Antifungal activity against Epidermophyton floccosum; format: functional
[27] = test system: Microsporum; test: Antifungal activity against Microsporum gypseum; format: functional
[28] = test system: Diaporthe longicolla; test: Antifungal activity against Phomopsis longicolla Hobbs CE117; format: functional
[29] = test system: Colletotrichum truncatum; test: Antifungal activity against Colletotrichum truncatum CE175; format: functional, Glomerella truncata

Chain of Protease (Human immunodeficiency virus 1) (Q9YQ12 as listed by the source): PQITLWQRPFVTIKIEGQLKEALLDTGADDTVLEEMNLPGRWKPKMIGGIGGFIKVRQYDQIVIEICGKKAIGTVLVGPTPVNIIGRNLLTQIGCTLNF
Chain of Protease (Q9YQ12 whole entry): as the sequence (Q9YQ12 as listed by the source) above

O=C(/C=C/c1cccc(Cl)c1)c1ccccc1O
inhibition at 12.5 µg/mL [1]: 90%

COc1ccc(/C=C/C(=O)c2ccc(OC)cc2OC)c(OC)c1
IC50 [2]: 6500 nM

O=C(Nc1ccc(Cl)cc1)Nc1ccc(C(=O)/C=C/c2ccc(Cl)cc2Cl)cc1
IC50 [3]: 1760 nM

O=C(/C=C/c1ccccc1)c1ccccc1 [CHALCONE]
IC50 [4]: 13700 nM

COc1cc(OC)c(/C=C/C(=O)c2ccccc2C(F)(F)F)c(OC)c1
inhibition at 10 µM [5]: 76.3%
inhibition at 10 µM [6]: 76.3%

O=C(/C(Br)=C(\Br)c1cccc([N+](=O)[O-])c1)c1cccc([N+](=O)[O-])c1
MIC [7]: 6.25 µg/mL (≈ 13.7 µM)
MIC [8]: 6.25 µg/mL (≈ 13.7 µM)
MIC [9]: 6.25 µg/mL (≈ 13.7 µM)

O=C(/C=C/c1ccc(Cl)cc1)c1ccccc1 [4-CHLORO CHALCONE]
IC50 [10]: 21900 nM

C=CC(C)(C)c1cc(/C=C/C(=O)c2ccc(O)cc2)c(OC)cc1Cl
MIC [11]: 10 µg/mL (≈ 28 µM)

O=C(/C=C/c1ccccc1O)c1ccccc1O
IC50 [12]: 1400 nM
IC50 [13]: 1600 nM

COc1ccc(C(=O)/C=C/c2ccccc2)c(O)c1
inhibition at 12.5 µg/mL [1]: 78%

COc1cc(O)cc(O)c1C(=O)/C=C/c1ccccc1 [CARDAMOMIN]
IC50 [14]: 115000 nM
inhibition [15]: 75.1%

COc1cc(/C=C/C(=O)c2ccc(O)c(CC=C(C)C)c2O)ccc1O [CROTAORIXIN]
inhibition at 50 µg/mL [16]: 100%
inhibition at 10 µg/mL [17]: 100%

O=C(Nc1ccc(Cl)cc1)Nc1ccc(C(=O)/C=C/c2ccc(F)cc2F)cc1
IC50 [3]: 1760 nM

O=C(CCc1ccc(O)cc1)c1c(O)cc(O)cc1O
inhibition [15]: 27%

COc1ccc(OC)c(C(=O)/C=C/c2ccc(N(C)C)cc2)c1
IC50 [18]: 700 nM

COc1cc(/C=C/C(=O)c2ccc(NC(=O)Nc3ccc(Cl)cc3)cc2)cc(OC)c1OC
IC50 [3]: 1760 nM

COc1ccc(C(=O)/C=C/c2ccc(C(F)(F)F)cc2)c(OC)c1OC
IC50 [2]: 6500 nM

COc1ccc(/C=C/C(=O)c2ccccc2)c(OC)c1
IC50 [19]: 650 nM
IC50 [20]: 4000 nM

O=C(/C=C/c1ccc(O)cc1)c1ccc(O)cc1O [ISOLIQUIRITIGENIN]
MIC [21]: 250 µg/mL (≈ 976 µM)
MIC [11]: 250 µg/mL (≈ 976 µM)
MIC [22]: 250 µg/mL (≈ 976 µM)

COc1cc(O)c(C(=O)/C=C/c2ccccc2Cl)c(OC)c1
MIC [23]: 12.5 µg/mL (≈ 39.2 µM)

COc1cccc(OC)c1C(=O)/C=C/c1ccc(N(C)C)cc1
IC50 [18]: 600 nM

O=C(/C=C/c1ccc(O)c(O)c1)c1ccc(O)cc1O
inhibition [15]: 50%

COc1cccc(/C=C/C(=O)c2ccc(Br)cc2)c1
MIC [23]: 3 µg/mL (≈ 9.46 µM)
MIC [24]: 3 µg/mL (≈ 9.46 µM)
MIC [25]: 25 µg/mL (≈ 78.8 µM)
MIC [26]: 0.5 µg/mL (≈ 1.58 µM)
MIC [27]: 1.5 µg/mL (≈ 4.73 µM)

O=C(/C=C/c1ccccc1)c1ccc(O)cc1O [2',4'-DIHYDROXYCHALCONE]
MIC [28]: 6.25 µg/mL (≈ 26 µM)
MIC [29]: 6.25 µg/mL (≈ 26 µM)

COc1ccc(/C=C/C(=O)c2ccccc2O)c(OC)c1
IC50 [19]: 650 nM
IC50 [20]: 4000 nM

COc1ccc(C(=O)/C=C/c2ccc(Cl)cc2Cl)c(OC)c1OC
IC50 [2]: 6500 nM

COc1ccc(C(=O)/C=C/c2ccc(C(F)(F)F)cc2)c(OC)c1
IC50 [2]: 6500 nM
